Test results taken from PMC10879502, “Linking ATP and allosteric sites to achieve superadditive binding with bivalent EGFR kinase inhibitors” (Communications Chemistry, 2024).

Key:
Experiment in all cases: KINOMEscan
Assay type in all cases: binding
Conditions in all cases: 1 μM
[1] = molecular target: T1, ABL1(F317L)-nonphosphorylated (Homo sapiens, UniProt P00519, F317L)
T1 construct: purchased Eurofins DiscoverX Corporation

CAMK2A = molecular target: T2, CAMK2A (Homo sapiens, UniProt Q9UQM7)
T2 construct: purchased Eurofins DiscoverX Corporation (KINOMEscan)
T2 sequence (Q9UQM7 whole entry): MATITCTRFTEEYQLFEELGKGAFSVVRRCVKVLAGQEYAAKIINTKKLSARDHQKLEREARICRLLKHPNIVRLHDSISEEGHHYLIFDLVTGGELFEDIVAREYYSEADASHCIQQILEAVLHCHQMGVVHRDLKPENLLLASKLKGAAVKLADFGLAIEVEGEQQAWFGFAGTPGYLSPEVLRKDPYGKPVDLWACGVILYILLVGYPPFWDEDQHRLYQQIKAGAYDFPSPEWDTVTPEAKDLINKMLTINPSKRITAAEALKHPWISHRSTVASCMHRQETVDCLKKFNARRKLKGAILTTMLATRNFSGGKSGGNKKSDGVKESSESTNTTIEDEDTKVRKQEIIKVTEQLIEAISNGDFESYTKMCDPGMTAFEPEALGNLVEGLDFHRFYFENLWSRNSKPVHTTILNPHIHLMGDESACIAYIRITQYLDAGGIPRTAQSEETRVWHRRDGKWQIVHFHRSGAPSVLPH

CSNK2A1 = molecular target: T3, CSNK2A1 (Homo sapiens, UniProt P68400)
T3 construct: purchased Eurofins DiscoverX Corporation

MAP4K4 = molecular target: T4, MAP4K4 (Homo sapiens, UniProt O95819)
T4 construct: purchased Eurofins DiscoverX Corporation

[2] = molecular target: RSK4(Kin.Dom.1-N-terminal) (Homo sapiens, UniProt Q9UK32)
[3] = molecular target: T5, ABL1(M351T)-phosphorylated (Homo sapiens, UniProt P00519, M351T)
T5 construct: purchased Eurofins DiscoverX Corporation

KIT = molecular target: T6, KIT (Homo sapiens, UniProt P10721)
T6 construct: purchased Eurofins DiscoverX (KINOMEscan)

FLT4 = molecular target: T7, FLT4 (Homo sapiens, UniProt P35916)
T7 construct: purchased Eurofins DiscoverX Corporation

PIK3CA(I800L) = PIK3CA(I800L) (Homo sapiens, UniProt P42336, I800L)
AKT3 = AKT3 (Homo sapiens, UniProt Q9Y243)
MARK3 = molecular target: T8, MARK3 (Homo sapiens, UniProt P27448)
T8 construct: purchased Eurofins DiscoverX Corporation

SRPK2 = SRPK2 (Homo sapiens, UniProt P78362)
PIK3CA(E542K) = PIK3CA(E542K) (Homo sapiens, UniProt P42336, E542K)
PIK3C2B = PIK3C2B (Homo sapiens, UniProt O00750)
DCAMKL3 = molecular target: T9, DCAMKL3 (Homo sapiens, UniProt Q9C098)
T9 construct: purchased Eurofins DiscoverX Corporation
T9 sequence (Q9C098 whole entry): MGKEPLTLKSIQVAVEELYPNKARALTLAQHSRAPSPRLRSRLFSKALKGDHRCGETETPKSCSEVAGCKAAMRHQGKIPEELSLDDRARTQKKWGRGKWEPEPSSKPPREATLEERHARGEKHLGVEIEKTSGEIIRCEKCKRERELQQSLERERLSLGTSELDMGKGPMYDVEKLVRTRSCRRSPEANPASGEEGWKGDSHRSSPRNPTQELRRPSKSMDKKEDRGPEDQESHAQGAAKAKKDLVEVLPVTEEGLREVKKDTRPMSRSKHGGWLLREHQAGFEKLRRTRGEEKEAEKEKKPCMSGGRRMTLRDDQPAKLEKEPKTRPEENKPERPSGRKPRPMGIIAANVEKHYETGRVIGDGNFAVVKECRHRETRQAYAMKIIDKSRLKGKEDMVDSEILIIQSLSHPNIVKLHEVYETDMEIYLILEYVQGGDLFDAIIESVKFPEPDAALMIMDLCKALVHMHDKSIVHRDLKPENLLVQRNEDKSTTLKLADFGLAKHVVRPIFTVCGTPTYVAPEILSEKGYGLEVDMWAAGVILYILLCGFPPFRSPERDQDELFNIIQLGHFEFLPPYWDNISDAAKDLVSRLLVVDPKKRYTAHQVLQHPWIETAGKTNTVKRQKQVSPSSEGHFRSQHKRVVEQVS

PRKCH = PRKCH (Homo sapiens, UniProt P24723)
MEK1 = molecular target: T10, MEK1 (Homo sapiens, UniProt Q02750)
T10 construct: purchased Eurofins DiscoverX Corporation

PIM2 = PIM2 (Homo sapiens, UniProt Q9P1W9)
PAK6 = PAK6 (Homo sapiens, UniProt Q9NQU5)
HASPIN = molecular target: T11, HASPIN (Homo sapiens, UniProt Q8TF76)
T11 construct: purchased Eurofins DiscoverX Corporation

PHKG1 = PHKG1 (Homo sapiens, UniProt Q16816)
PKN2 = PKN2 (Homo sapiens, UniProt Q16513)
Sequence of PKN2 (Q16513 whole entry): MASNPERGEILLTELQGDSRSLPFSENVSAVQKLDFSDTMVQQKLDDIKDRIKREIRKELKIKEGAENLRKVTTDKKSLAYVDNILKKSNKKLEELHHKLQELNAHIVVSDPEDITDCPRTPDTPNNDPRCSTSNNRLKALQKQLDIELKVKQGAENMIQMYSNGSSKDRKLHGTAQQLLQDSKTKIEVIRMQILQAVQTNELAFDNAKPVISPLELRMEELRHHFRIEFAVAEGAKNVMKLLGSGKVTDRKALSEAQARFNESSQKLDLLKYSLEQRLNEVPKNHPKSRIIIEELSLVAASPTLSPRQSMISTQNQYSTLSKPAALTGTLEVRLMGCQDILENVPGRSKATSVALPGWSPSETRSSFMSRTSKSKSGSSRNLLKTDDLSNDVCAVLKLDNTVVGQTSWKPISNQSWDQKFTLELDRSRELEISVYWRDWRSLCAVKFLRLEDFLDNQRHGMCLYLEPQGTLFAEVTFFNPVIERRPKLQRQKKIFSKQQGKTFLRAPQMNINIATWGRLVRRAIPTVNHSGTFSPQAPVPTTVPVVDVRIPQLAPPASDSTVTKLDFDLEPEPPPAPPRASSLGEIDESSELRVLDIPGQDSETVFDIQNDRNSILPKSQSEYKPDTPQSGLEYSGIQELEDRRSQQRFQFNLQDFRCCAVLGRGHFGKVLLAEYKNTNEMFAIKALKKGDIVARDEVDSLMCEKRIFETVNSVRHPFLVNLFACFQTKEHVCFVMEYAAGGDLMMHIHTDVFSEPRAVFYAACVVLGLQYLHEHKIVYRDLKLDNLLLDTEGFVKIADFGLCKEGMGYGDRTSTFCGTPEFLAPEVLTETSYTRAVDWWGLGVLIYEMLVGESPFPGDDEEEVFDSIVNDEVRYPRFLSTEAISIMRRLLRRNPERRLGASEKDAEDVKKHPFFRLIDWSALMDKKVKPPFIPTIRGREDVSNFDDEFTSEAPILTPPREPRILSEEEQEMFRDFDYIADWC

ACVR2B = ACVR2B (Homo sapiens, UniProt Q13705)
MST3 = molecular target: T12, MST3 (Homo sapiens, UniProt Q9Y6E0)
T12 construct: purchased Eurofins DiscoverX Corporation

AURKB = AURKB (Homo sapiens, UniProt Q96GD4)
ASK2 = ASK2 (Homo sapiens, UniProt O95382)
GRK4 = molecular target: T13, GRK4 (Homo sapiens, UniProt P32298)
T13 construct: purchased Eurofins DiscoverX Corporation

MINK = molecular target: T14, MINK (Homo sapiens, UniProt Q8N4C8)
T14 construct: purchased Eurofins DiscoverX Corporation

FLT3 = FLT3 (Homo sapiens, UniProt P36888)
Sequence of FLT3 (P36888 27-993): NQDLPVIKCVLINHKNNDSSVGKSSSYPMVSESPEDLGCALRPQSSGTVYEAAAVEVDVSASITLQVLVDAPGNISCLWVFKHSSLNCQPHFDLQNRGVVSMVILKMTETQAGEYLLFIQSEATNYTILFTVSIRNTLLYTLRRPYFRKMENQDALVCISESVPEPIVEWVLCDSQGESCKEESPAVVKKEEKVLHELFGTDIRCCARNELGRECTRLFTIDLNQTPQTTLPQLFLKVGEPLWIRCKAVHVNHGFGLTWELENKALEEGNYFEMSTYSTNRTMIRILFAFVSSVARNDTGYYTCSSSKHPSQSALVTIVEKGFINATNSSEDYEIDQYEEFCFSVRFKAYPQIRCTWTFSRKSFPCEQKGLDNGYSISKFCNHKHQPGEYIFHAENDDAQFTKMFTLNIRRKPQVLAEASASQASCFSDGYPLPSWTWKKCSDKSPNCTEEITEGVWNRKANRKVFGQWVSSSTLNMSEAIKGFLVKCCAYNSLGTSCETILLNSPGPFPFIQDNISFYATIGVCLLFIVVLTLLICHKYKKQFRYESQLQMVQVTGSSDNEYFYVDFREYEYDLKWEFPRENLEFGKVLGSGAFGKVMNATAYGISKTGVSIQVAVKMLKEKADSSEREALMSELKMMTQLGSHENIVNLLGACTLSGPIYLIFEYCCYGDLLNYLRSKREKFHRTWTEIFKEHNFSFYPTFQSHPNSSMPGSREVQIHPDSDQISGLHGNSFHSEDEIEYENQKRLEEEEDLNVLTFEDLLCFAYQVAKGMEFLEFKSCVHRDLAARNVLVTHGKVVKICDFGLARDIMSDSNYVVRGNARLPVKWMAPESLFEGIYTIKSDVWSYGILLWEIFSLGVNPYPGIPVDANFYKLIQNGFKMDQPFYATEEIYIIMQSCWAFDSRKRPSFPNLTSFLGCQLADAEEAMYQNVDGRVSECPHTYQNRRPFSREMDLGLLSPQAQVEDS

KIT(A829P) = molecular target: T15, KIT(A829P) (Homo sapiens, UniProt P10721, A829P)
T15 construct: purchased Eurofins DiscoverX (KINOMEscan)

PDGFRB = PDGFRB (Homo sapiens, UniProt P09619)
ERK5 = ERK5 (Homo sapiens, UniProt Q13164)
MARK1 = molecular target: T16, MARK1 (Homo sapiens, UniProt Q9P0L2)
T16 construct: purchased Eurofins DiscoverX Corporation
T16 sequence (Q9P0L2 whole entry): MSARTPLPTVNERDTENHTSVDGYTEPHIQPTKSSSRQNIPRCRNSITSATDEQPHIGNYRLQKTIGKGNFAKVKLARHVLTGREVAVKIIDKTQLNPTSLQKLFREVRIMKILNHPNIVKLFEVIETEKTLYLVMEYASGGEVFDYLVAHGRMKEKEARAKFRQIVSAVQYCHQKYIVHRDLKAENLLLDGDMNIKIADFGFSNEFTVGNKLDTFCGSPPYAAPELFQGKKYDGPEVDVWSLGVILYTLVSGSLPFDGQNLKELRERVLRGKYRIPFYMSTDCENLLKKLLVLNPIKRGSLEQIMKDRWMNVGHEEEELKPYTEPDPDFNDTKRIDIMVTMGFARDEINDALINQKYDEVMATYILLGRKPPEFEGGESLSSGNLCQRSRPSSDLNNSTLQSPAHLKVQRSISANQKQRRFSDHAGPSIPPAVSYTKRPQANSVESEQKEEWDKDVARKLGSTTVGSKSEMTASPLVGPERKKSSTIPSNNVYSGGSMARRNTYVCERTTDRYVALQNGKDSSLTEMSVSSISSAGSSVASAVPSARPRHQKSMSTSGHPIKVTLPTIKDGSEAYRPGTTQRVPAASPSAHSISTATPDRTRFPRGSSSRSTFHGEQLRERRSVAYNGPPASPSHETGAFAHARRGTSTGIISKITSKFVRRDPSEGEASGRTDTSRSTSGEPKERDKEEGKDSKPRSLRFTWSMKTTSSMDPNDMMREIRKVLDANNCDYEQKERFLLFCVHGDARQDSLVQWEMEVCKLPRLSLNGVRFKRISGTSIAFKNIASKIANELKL

ERBB3 = ERBB3 (Homo sapiens, UniProt P21860)
PIK3CA(H1047L) = PIK3CA(H1047L) (Homo sapiens, UniProt P42336, H1047L)
YANK3 = YANK3 (Homo sapiens, UniProt Q86UX6)
IRAK3 = molecular target: T17, IRAK3 (Homo sapiens, UniProt Q9Y616)
T17 construct: purchased Eurofins DiscoverX (KINOMEscan)

YANK1 = YANK1 (Homo sapiens, UniProt Q8WU08)
Sequence of YANK1 (Q8WU08 whole entry): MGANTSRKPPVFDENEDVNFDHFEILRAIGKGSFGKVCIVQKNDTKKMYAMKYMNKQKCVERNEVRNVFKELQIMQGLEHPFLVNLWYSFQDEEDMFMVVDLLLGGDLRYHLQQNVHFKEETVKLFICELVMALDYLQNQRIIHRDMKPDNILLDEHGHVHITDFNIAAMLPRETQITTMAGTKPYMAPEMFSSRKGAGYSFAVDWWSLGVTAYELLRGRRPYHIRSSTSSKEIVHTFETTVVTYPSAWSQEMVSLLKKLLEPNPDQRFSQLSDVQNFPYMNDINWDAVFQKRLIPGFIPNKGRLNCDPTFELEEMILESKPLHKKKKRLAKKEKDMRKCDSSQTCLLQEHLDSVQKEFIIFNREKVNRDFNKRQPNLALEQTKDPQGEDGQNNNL

HIPK4 = molecular target: T18, HIPK4 (Homo sapiens, UniProt Q8NE63)
T18 construct: purchased Eurofins DiscoverX Corporation
T18 sequence (Q8NE63 whole entry): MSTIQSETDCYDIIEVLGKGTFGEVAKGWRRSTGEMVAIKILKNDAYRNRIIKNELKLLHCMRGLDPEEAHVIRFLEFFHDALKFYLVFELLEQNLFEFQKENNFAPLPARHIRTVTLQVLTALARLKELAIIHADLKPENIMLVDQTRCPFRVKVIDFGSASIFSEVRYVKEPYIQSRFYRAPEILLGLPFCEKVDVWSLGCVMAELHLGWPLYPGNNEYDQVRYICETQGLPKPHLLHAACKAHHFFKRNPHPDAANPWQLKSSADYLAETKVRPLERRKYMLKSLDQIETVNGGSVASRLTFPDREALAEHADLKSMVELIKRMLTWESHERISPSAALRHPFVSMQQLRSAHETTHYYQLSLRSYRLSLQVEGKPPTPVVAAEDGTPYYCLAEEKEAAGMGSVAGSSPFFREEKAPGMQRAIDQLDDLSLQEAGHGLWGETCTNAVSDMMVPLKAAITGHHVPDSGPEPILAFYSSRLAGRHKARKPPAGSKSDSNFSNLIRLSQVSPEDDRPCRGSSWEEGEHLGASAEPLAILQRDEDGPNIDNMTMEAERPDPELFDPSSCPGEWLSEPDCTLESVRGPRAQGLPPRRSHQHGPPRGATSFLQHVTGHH

WNK4 = WNK4 (Homo sapiens, UniProt Q96J92)
RIPK4 = RIPK4 (Homo sapiens, UniProt P57078)
CSNK1D = molecular target: T19, CSNK1D (Homo sapiens, UniProt P48730)
T19 construct: purchased Eurofins DiscoverX Corporation

With `C=CC(=O)Nc1ccc(OC)c(Nc2cc(-c3[nH]c(CC)nc3-c3cccc(NC(=O)c4cccc5c4NC(=O)c4ccccc4N5)c3)ccn2)c1` [Compound 4] the POC [1] was 37% of control, the POC (CAMK2A) was 65% of control and the POC (CSNK2A1) was 100% of control. For the same compound, the POC (MAP4K4) was 6.1% of control, the POC [2] was 100% of control and the POC [3] was 67% of control. For the same compound, the POC (KIT) was 100% of control, the POC (FLT4) was 100% of control and the POC (PIK3CA(I800L)) was 100% of control. The POC (AKT3) was 100% of control, the POC (MARK3) was 100% of control and the POC (SRPK2) was 100% of control. The POC (PIK3CA(E542K)) was 100% of control, the POC (PIK3C2B) was 74% of control and the POC (DCAMKL3) was 86% of control. For the same compound, the POC (PRKCH) was 69% of control, the POC (MEK1) was 100% of control and the POC (PIM2) was 88% of control. The POC (PAK6) was 93% of control, the POC (HASPIN) was 100% of control and the POC (PHKG1) was 96% of control. For the same compound, the POC (PKN2) was 100% of control, the POC (ACVR2B) was 72% of control and the POC (MST3) was 73% of control. The POC (AURKB) was 100% of control, the POC (ASK2) was 100% of control and the POC (GRK4) was 100% of control. For the same compound, the POC (MINK) was 10% of control, the POC (FLT3) was 100% of control and the POC (KIT(A829P)) was 56% of control. The POC (PDGFRB) was 100% of control, the POC (ERK5) was 100% of control and the POC (MARK1) was 92% of control. For the same compound, the POC (ERBB3) was 84% of control, the POC (PIK3CA(H1047L)) was 100% of control and the POC (YANK3) was 96% of control. The POC (IRAK3) was 39% of control, the POC (YANK1) was 84% of control and the POC (HIPK4) was 92% of control. The POC (WNK4) was 85% of control, the POC (RIPK4) was 100% of control and the POC (CSNK1D) was 87% of control.
